In patent publication US10793559B2, “Chemical compounds” (GlaxoSmithKline Intellectual Property Development Limited, priority 2016, dated 2020):

Key:
PI3K-Delta = PI3K-Delta (Homo sapiens, UniProt O00329); experiment: PI3K HTRF assay (PI3K Delta); assay type: biochemical; conditions: PI3K-Delta 1.5 nM, 80 μM ATP, 10 μM PIP2 final, read-out: mean pIC50 in the PI3K Delta assay (converted)
Experimental: Biological Data PI3K HTRF Assay
The binding of compounds to PI3K-alpha/beta/delta/gamma is determined by homogeneous time resolved fluorescence (HTRF) assays as follows;
Briefly, solid compound is dissolved in 100% DMSO at a concentration of 2 mM. Dilutions are prepared in 100% DMSO using a 1 in 4 serial step dilution. The dilutions are transferred to black low volume Greiner assay plates ensuring that the DMSO concentration is constant across the plate at 1% (0.1 ul/well).
PI3K Reaction Buffer (contains 50 mM HEPES pH7.0 (NaOH), 150 mM NaCl, 10 mM MgCl2, 2.3 mM sodium cholate, 10 μM CHAPS made up in milliQ water). Fresh DTT is added at a final concentration of 1 mM on the day of use. Wortmannin at a concentration sufficient to produce 100% inhibition (8.33e-6 M) is added to column 18 of compound plates.
Enzyme solutions: 1× PI3K assay Buffer containing: • 550 pM PI3K-Alpha enzyme (275 pM final assay concentration) • 800 pM PI3K-Beta enzyme (400 pM final assay concentration) • 3 nM PI3K-Delta enzyme (1.5 nM final assay concentration) • 10 nM PI3K-Gamma enzyme (5 nM final assay concentration)
These concentrations are optimal to achieve a signal:background of between 1.5-4.5. The enzyme solution is added to columns 1-24 (3 ul/well) and plates are incubated for 15 minutes at room temperature.
Substrate solution: 1× PI3K assay buffer containing: • PI3K-Alpha: 500 μM ATP, 20 μM PIP2 and 120 nM biotin-PIP3. (Final assay concentrations are 250 μM ATP, 10 μM PIP2 (both at Km) and 40 nM biotin-PIP3) • PI3K-Beta: 800 μM ATP, 20 μM PIP2 and 120 nM biotin-PIP3. (Final assay concentrations are 400 μM ATP, 10 μM PIP2 (both at Km) and 40 nM biotin-PIP3) • PI3K-Delta: […], 20 μM PIP2 and 120 nM biotin-PIP3. (Final assay concentrations are 80 μM ATP, 10 μM PIP2 (both at Km) and 40 nM biotin-PIP3) • PI3K-Gamma: 30 μM ATP, 20 μM PIP2 and 120 nM biotin-PIP3.
This is added to all wells and plates are incubated for 1 hour at room temperature.
Detection solution: PI3K Detection Buffer (contains 50 mM HEPES pH7.0 (HCl), 150 mM NaCl, 2.3 mM sodium cholate, 10 μM CHAPS, 240 mM potassium fluoride) containing 2 mM DTT (2× final concentration), 90 nM GRP-1 PH domain, 300 nM Streptavidin-APC and 24 nM Europium-anti-GST (6× final concentrations)
This is mixed left at room temperature (protected from light).
STOP solution: PI3K STOP Buffer (contains 50 mM HEPES pH7.0 (HCl), 150 mM NaCl, 2.3 mM sodium cholate, 10 μM CHAPS, 150 mM EDTA).
Detection solution is diluted 1:1 with STOP solution and added to all wells (3 ul/well). Plates are covered and incubated on the bench for 45-60 minutes. Plates are read on a PerkinElmer Envision, measuring TR-FRET between the complex formed between the GST-tagged PH domain and biotinylated PIP3 which both recruit fluorophores (Europium-labelled anti-GST & Strep-APC respectively). […], this complex is disrupted by the competitive action of non-biotinylated PIP3 (formed in the assay by the phosphorylation of PIP2 by the kinase & ATP). From this, the ratio of acceptor/donor was calculated (Aex=317 nm, Aem donor=615 nm, em acceptor=665 nm) and used for data analysis.

[1] = test system: amphetamine-induced psychosis; conditions: Law et al. 2012; cited from earlier work

Chain of PI3K-Delta (O00329 whole entry): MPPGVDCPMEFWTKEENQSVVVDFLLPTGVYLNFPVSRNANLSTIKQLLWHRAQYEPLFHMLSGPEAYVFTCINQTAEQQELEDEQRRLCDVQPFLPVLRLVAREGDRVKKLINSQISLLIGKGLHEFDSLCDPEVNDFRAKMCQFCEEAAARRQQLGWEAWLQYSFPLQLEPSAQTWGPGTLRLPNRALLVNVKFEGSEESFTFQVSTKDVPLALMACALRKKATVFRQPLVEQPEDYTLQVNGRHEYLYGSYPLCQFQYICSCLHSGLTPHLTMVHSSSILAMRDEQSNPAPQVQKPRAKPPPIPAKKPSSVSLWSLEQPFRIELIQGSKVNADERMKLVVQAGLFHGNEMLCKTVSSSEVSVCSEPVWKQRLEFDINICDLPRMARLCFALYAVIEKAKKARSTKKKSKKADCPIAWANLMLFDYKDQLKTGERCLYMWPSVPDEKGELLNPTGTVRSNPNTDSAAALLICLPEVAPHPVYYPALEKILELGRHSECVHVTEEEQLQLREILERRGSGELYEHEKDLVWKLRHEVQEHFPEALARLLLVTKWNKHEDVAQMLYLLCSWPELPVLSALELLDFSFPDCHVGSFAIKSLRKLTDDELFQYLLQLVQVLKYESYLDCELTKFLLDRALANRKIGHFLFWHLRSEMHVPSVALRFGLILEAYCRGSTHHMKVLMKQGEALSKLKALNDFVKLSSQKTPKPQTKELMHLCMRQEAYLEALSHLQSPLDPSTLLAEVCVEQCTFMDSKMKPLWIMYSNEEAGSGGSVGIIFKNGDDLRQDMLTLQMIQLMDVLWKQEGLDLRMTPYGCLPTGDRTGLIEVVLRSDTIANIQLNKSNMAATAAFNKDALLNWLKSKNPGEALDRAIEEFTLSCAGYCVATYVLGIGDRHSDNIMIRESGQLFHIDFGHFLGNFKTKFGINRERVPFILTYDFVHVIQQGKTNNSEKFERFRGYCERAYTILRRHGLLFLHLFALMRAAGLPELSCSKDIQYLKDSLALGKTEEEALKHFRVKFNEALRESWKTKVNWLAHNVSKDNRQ
Chain of PI3K-Delta (P27986 whole entry partner): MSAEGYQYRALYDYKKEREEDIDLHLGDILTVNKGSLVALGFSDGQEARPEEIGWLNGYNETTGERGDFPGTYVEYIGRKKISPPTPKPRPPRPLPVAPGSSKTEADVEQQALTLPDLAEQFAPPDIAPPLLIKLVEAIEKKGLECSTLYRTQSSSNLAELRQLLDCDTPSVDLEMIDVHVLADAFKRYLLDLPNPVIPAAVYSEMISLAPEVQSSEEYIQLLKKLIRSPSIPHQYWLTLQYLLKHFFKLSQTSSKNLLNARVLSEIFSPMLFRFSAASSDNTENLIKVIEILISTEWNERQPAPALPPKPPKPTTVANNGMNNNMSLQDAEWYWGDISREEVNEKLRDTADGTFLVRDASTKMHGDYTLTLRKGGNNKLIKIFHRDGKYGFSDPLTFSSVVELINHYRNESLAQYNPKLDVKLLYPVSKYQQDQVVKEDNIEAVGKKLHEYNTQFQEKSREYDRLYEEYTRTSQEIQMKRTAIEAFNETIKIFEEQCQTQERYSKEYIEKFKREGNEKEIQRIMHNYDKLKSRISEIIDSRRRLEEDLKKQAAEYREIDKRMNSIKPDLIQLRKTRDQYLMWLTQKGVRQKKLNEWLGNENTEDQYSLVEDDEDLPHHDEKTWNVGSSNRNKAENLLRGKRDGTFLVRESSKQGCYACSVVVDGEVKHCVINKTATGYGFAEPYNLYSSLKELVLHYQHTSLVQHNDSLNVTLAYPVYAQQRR

## CCOc1ncc(N2CCOCC2)cc1S(=O)(=O)Nc1ccnc(-c2ccc(CN3C[C@@H](C)O[C@@H](C)C3)cc2F)c1 [Example 37, Rac-N-(2-(4-(((2S,6R)-2,6-dimethylmorpholino)methyl)-2-fluorophenyl)pyridin-4-yl)-2-ethoxy-5-morpholinopyridine-3-sulfonamide]
PI3K-Delta
  IC50: ≤ 3.16 nM

## Cc1ccccc1-n1c(Cn2cnc3c(N)ncnc32)nc2cccc(C)c2c1=O [IC87114]
[1]
  efficacy in a mouse model of amphetamine-induced psychosis: remarkable efficacy
